Measurements taken from ChEMBL document CHEMBL1146468, “Plakolide A, a new gamma-lactone from the marine sponge Plakortis sp” (J Nat Prod, 2004).
In brackets after ≈: the same amount, converted by molar mass.

Legend:
[1] = Cytotoxicity against mouse RAW264.7 cells assessed as cell viability at 1.3 ug/ml after 3 hrs by MTT assay; type: cell-based; conditions: read-out: Activity
P388 = experiment: Cytotoxicity against mouse P388 cells after 72 hrs by MTT assay; type: functional, cell-based; conditions: P388, 72 h
[2] = Cytotoxicity against human NCI/ADR cells after 72 hrs by MTT assay; type: functional, cell-based; conditions: NCI/ADR-RES
A549 = experiment: Cytotoxicity against human A549 cells after 72 hrs by MTT assay; type: functional, cell-based; conditions: A549, 72 h
PANC-1 = experiment: Cytotoxicity against human PANC1 cells after 72 hrs by MTT assay; type: functional, cell-based; conditions: PANC-1, 72 h
[3] = target: T1, Nitric oxide synthase, inducible (Mus musculus, UniProt P29477); experiment: Inhibition of iNOS-mediated NO production in LPS-stimulated mouse RAW264.7 cells by Griess method; type: cell-based
T1 sequence (P29477 whole entry): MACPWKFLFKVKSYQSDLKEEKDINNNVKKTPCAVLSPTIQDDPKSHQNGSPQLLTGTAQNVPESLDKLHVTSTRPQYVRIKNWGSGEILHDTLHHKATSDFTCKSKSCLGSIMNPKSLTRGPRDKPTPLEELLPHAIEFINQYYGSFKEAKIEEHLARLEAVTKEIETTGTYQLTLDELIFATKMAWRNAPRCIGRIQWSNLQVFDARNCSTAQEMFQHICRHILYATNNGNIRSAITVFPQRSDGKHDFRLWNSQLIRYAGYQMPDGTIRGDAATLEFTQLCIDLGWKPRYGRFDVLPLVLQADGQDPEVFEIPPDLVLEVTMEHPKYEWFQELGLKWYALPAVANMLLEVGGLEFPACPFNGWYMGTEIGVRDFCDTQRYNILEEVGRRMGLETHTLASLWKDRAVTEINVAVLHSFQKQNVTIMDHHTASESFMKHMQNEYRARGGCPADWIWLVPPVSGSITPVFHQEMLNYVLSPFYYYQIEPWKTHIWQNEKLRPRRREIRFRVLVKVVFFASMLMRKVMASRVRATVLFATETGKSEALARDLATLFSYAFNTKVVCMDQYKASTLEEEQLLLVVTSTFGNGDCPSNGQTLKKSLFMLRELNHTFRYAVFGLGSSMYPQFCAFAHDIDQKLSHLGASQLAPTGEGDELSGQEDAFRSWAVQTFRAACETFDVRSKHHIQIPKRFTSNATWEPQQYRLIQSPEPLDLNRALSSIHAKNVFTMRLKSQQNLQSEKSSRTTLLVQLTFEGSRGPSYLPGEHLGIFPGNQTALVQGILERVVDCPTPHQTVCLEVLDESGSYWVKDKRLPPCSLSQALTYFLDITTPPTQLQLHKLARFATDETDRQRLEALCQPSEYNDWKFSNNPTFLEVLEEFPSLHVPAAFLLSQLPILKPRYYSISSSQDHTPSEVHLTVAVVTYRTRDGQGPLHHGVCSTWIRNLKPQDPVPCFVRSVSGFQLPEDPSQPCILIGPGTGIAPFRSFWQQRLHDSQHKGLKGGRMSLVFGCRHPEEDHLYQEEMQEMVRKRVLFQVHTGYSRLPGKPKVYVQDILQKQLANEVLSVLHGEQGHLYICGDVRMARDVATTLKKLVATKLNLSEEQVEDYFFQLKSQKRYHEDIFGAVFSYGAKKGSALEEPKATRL

In the case of `C=C1C[C@@](C)(/C=C/C=C/CCCCCCCC)OC1=O` [PLAKOLIDE A], the viability at 3 h, 1.3 ug/ml [1] is reported as 50%, the IC50 (P388) is reported as 1.1 µg/mL (≈ 3.98 µM) and the IC50 [2] is reported as 3.7 µg/mL (≈ 13.4 µM). The IC50 (A549) was 5 µg/mL (≈ 18.1 µM), the IC50 (PANC-1) was 3.8 µg/mL (≈ 13.7 µM) and the IC50 [3] was 724 nM.
